# Data reported in patent US11464826B2, “Composition comprising an algal proteoglycan extract and use thereof” (priority 2016, dated 2022).
# Read-outs that look alike come from different tables or passages of the source.
# How the values were obtained:
# [1] = system: S-180 sarcoma; assay: Transplanted S-180 sarcoma in mice, tumor inhibition
# Procedure: Tumors, including B-16 melanoma and S-180 sarcoma, were provided by Shanghai Institute of Materia Medica of the Chinese Academy of Sciences.
# The tumor tissue was made into cell suspension. The mice were inoculated subcutaneously in the right axilla with the cell suspension, about 4.5-5×10^6 cells/mouse. After 24 hours, the mice were randomly divided into different groups and housed in separate cages (n=6). […] The administration began on the second day and lasted for seven days, with different doses. The blank control group was given normal saline (NS). The animals were sacrificed and weighed (g body weight) 24 hours after drug withdrawal. The tumors were excised and weighed. The average tumor weight was calculated for each group. According to the following formula, the tumor inhibition rate was calculated and T test was conducted.
# According to the formula below, the tumor inhibition rate was calculated and T test was conducted.
# (§1) A=average tumor weight (g) of blank control group,
# B=average tumor weight (g) of therapeutic group
# [2] = system: B16 melanoma; assay: Transplanted B16 melanoma in mice, tumor inhibition; format: in vivo, C57 mice; settings: alone or combined, once a day for seven days
# Procedure: The tumor tissue was made into cell suspension. […] The blank control group was given normal saline (NS). […] The tumors were excised and weighed. The average tumor weight was calculated for each group.
# as §1
# B =average tumor weight (g) of therapeutic group
# [3] = system: pancreatic carcinoma; settings: cited from earlier work
# [4] = system: liver cancer; settings: treatment group (placebo control group 7.9 months); cited from earlier work
# [5] = Table 18: 5-Fluorouracil 15 mg/kg i.p, Algal proteoglycan 20 mg/kg p.o, alone or combined, once a day for seven days
# [6] = Table 14: Adriamycin 1 mg/kg i.p, Algal proteoglycan 30 mg/kg p.o
# [7] = Table 12: Carboplatin 4 mg/kg i.p, Algal proteoglycan 30 mg/kg p.o
# [8] = Table 13: Carboplatin 4 mg/kg i.p, Algal proteoglycan 60 mg/kg p.o
# [9] = Table 16: Carboplatin 4 mg/kg i.p, Algal proteoglycan 20 mg/kg p.o, alone or combined, once a day for seven days
# [10] = Table 15: Cyclophosphamide 7.5 mg/kg i.p, Algal proteoglycan 60 mg/kg p.o, alone or combined, once a day for seven days
# [11] = Table 17: Etoposide 3 mg/kg i.p, Algal proteoglycan 20 mg/kg p.o, alone or combined, once a day for seven days
compound,measurement,setting,value
"O=c1[nH]cc(F)c(=O)[nH]1 [5-Fluorouracil, 5-fluorouracil]","inhibitory effect on the transplanted tumor of S-180 sarcoma, in words",[1]; 5-fluorouracil 15 mg/kg used alone,moderate inhibitory effect
same,Tumor Inhibition Rate (%),[1]; [5],33.8%
same,Tumor Weight (g) x ± SD,[1]; [5],1.04 ± 0.52 g
COc1cccc2c1C(=O)c1c(O)c3c(c(O)c1C2=O)C[C@@](O)(C(=O)CO)C[C@@H]3O[C@H]1C[C@H](N)[C@H](O)[C@H](C)O1 [Adriamycin],Tumor Inhibition Rate (%),[2]; [6],41.5%
same,Tumor Weight (g) x ± SD,[2]; [6],1.97 ± 0.84 g
N.N.O=C([O-])C1(C(=O)[O-])CCC1.[Pt+2] [Carboplatin],Body Weight (g) in the Beginning,[2]; [7],18.0 g
same,Body Weight (g) in the End,[2]; [7],16.7 g
same,Tumor Inhibition Rate (%),[2]; [7],28.2%
same,Tumor Weight (g) x ± SD,[2]; [7],1.07 ± 0.88 g
same,Body Weight (g) in the Beginning,[2]; [8],20.3 g
same,Tumor Inhibition Rate (%),[2]; [8],14.0%
same,Tumor Weight (g) x ± SD,[2]; [8],1.23 ± 0.37 g
same,"inhibitory effect on the growth of the transplanted tumor of S-180 sarcoma, in words",[1]; Carboplatin 4 mg/kg used alone (P>0.05),no inhibitory effect
same,Body Weight (g) in the End,[1]; [9],26.4 g
same,Tumor Inhibition Rate (%),[1]; [9],7.7%
same,Tumor Weight (g) x ± SD,[1]; [9],1.68 ± 0.53 g
O=P1(N(CCCl)CCCl)NCCCO1 (stereo not drawn) [Cyclophosphamide],Body Weight (g) in the Beginning,[1]; [10],22.8 g
same,Body Weight (g) in the End,[1]; [10],24.9 g
same,Tumor Inhibition Rate (%),[1]; [10],42.2%
same,Tumor Weight (g) x ± SD,[1]; [10],1.11 ± 0.24 g
COc1cc([C@@H]2c3cc4c(cc3[C@@H](O[C@@H]3O[C@@H]5CO[C@@H](C)O[C@H]5[C@H](O)[C@H]3O)[C@H]3COC(=O)[C@H]23)OCO4)cc(OC)c1O [Etoposide],Tumor Inhibition Rate (%),[1]; [11],26.9%
same,Tumor Weight (g) x ± SD,[1]; [11],1.33 ± 0.28 g
Nc1ccn([C@@H]2O[C@H](CO)[C@@H](O)C2(F)F)c(=O)n1 [Gemcitabine FDR.],Overall survival,"[3]; Poplon et al, 832 cases",6.2 months
Nc1ccn([C@@H]2O[C@H](CO)[C@@H](O)C2(F)F)c(=O)n1 [Gemcitabine],Overall survival,"[3]; Abou-Alfa et al, 349 cases",6.2 months
same,Overall survival,"[3]; Berlin et al, 322 cases",5.4 months
same,Overall survival,"[3]; Colucci et al, 400 cases",7.2 months
same,Overall survival,"[3]; Cunningham et al, 533 cases",7.1 months
same,Overall survival,"[3]; Heinemann et al, 195 cases",6.0 months
same,Overall survival,"[3]; Hermann et al, 319 cases",7.2 months
same,Overall survival,"[3]; Louvet et al, 313 cases",7.1 months
same,Overall survival,"[3]; Oettle et al, 565 cases",6.3 months
same,Overall survival,"[3]; Poplon et al, 832 cases",4.9 months
same,Overall survival,"[3]; Rocha Lima et al, 342 cases",6.3 months
same,Overall survival,"[3]; Starhopoulos et al, 145 cases",6.4 months
CNC(=O)c1cc(Oc2ccc(NC(=O)Nc3ccc(Cl)c(C(F)(F)F)c3)cc2)ccn1 [Sorafenib],median survival time,[4],10.7 months
Gemcitabine + capecitabine,Overall survival,"[3]; Cunningham et al, 533 cases",6.2 months
same,Overall survival,"[3]; Hermann et al, 319 cases",8.4 months
Gemcitabine + cisplatin,Overall survival,"[3]; Colucci et al, 400 cases",8.2 months
same,Overall survival,"[3]; Heinemann et al, 195 cases",7.5 months
